Assay results from patent US12343326B2, “Psychoactive medicines and their use for treating psychiatric and neurological conditions and disorders” (Transcend Therapeutics, Inc., priority 2021, dated 2025).

What was measured:
Assay in all cases: β-arrestin based GPCR screen (PathHunter / GPCRmax), agonist mode
Format in all cases: cell-based
Parameters in all cases: host or cells: PathHunter cell lines
168 GPCRs [1] = target: 168 GPCRs (Homo sapiens, UniProt O43193); conditions: MLNR
Procedure: (§1) For agonist determination, cells were incubated with sample to induce response. […] Vehicle concentration was 1%.

168 GPCRs [2] = target: 168 GPCRs (Homo sapiens, UniProt P08912); conditions: CHRM5, Agonist
Procedure: as §1

168 GPCRs [3] = target: 168 GPCRs (Homo sapiens, UniProt P11229); conditions: CHRM1, Agonist
Procedure: as §1

168 GPCRs [4] = target: 168 GPCRs (Homo sapiens, UniProt P16473); conditions: TSHR(L)
Procedure: as §1

168 GPCRs [5] = target: 168 GPCRs (Homo sapiens, UniProt P21452)
Procedure: as §1

168 GPCRs [6] = target: 168 GPCRs (Homo sapiens, UniProt P21918)
Procedure: as §1

168 GPCRs [7] = target: 168 GPCRs (Homo sapiens, UniProt P25116); conditions: F2R
Procedure: as §1

168 GPCRs [8] = target: 168 GPCRs (Homo sapiens, UniProt P30989)
Procedure: as §1

168 GPCRs [9] = target: 168 GPCRs (Homo sapiens, UniProt P32245); conditions: MC4R
Procedure: as §1

168 GPCRs [10] = target: 168 GPCRs (Homo sapiens, UniProt P32302)
Procedure: as §1

168 GPCRs [11] = target: 168 GPCRs (Homo sapiens, UniProt P34981); conditions: TRHR
Procedure: as §1

168 GPCRs [12] = target: 168 GPCRs (Homo sapiens, UniProt P37288); conditions: AVPR1A, Agonist
Procedure: as §1

168 GPCRs [13] = target: 168 GPCRs (Homo sapiens, UniProt P41231)
Procedure: as §1

168 GPCRs [14] = target: 168 GPCRs (Homo sapiens, UniProt P41968); conditions: MC3R
Procedure: as §1

168 GPCRs [15] = target: 168 GPCRs (Homo sapiens, UniProt P43220); conditions: GLP1R
Procedure: as §1

168 GPCRs [16] = target: 168 GPCRs (Homo sapiens, UniProt P49238)
Procedure: as §1

168 GPCRs [17] = target: 168 GPCRs (Homo sapiens, UniProt P49682)
Procedure: as §1

168 GPCRs [18] = target: 168 GPCRs (Homo sapiens, UniProt Q8NFJ6)
Procedure: as §1

168 GPCRs [19] = target: 168 GPCRs (Homo sapiens, UniProt Q92847); conditions: GHSR
Procedure: as §1

168 GPCRs [20] = target: 168 GPCRs (Homo sapiens, UniProt Q99788); conditions: CMKLR1, Agonist
Procedure: as §1

168 GPCRs [21] = target: 168 GPCRs (Homo sapiens, UniProt Q9GZQ6)
Procedure: as §1

168 GPCRs [22] = target: 168 GPCRs (Homo sapiens, UniProt Q9HBW0)
Procedure: as §1

168 GPCRs [23] = target: 168 GPCRs (Homo sapiens, UniProt Q9Y5N1)
Procedure: as §1

168 GPCRs (Homo sapiens, UniProt Q9Y5N1), sequence (Q9Y5N1 whole entry): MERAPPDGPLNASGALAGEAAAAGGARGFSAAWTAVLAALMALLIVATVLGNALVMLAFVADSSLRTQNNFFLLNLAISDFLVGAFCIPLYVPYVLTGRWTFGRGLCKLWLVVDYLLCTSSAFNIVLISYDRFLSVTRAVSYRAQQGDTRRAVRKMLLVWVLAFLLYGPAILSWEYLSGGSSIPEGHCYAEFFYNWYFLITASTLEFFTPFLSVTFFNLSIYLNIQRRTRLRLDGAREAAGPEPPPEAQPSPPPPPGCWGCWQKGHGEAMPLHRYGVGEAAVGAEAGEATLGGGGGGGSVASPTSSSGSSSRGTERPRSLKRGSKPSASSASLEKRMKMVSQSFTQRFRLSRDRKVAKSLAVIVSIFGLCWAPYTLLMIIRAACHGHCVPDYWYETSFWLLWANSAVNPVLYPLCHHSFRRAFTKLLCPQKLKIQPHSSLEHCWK
168 GPCRs (Homo sapiens, UniProt Q8NFJ6), sequence (Q8NFJ6 whole entry): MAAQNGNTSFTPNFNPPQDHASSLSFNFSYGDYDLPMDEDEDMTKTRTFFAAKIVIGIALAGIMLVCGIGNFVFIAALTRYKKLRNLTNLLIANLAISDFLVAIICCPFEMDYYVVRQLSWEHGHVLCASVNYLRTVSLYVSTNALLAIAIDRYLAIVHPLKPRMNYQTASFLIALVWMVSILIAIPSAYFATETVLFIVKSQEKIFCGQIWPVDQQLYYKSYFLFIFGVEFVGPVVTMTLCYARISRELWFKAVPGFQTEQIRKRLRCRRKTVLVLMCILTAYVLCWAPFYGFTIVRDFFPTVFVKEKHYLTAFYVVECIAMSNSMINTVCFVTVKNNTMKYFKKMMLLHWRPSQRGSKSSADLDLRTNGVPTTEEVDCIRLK
168 GPCRs (Homo sapiens, UniProt P34981), sequence (P34981 whole entry): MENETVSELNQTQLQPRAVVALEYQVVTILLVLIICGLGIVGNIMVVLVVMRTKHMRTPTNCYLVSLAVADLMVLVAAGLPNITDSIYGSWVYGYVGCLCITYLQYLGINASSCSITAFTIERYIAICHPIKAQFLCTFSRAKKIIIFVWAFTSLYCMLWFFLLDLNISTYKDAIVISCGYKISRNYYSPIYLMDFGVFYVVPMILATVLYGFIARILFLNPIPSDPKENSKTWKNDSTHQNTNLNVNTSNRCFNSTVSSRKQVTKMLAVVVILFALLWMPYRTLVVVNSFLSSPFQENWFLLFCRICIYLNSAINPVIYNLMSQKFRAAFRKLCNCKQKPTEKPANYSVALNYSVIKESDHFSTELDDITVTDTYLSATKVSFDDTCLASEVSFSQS
168 GPCRs (Homo sapiens, UniProt P43220), sequence (P43220 24-463): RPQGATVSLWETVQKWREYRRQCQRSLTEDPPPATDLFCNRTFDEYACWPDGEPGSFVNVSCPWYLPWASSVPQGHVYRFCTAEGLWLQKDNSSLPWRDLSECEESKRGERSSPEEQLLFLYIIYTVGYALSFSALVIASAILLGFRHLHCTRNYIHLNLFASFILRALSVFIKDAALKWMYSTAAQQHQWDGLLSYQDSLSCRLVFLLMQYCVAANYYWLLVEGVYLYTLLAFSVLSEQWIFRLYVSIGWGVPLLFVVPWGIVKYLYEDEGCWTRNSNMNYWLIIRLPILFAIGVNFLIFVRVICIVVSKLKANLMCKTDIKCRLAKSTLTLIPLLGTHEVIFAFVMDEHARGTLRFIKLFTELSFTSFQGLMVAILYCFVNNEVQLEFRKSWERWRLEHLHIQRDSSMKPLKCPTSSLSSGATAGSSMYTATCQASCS
168 GPCRs (Homo sapiens, UniProt P32245), sequence (P32245 whole entry): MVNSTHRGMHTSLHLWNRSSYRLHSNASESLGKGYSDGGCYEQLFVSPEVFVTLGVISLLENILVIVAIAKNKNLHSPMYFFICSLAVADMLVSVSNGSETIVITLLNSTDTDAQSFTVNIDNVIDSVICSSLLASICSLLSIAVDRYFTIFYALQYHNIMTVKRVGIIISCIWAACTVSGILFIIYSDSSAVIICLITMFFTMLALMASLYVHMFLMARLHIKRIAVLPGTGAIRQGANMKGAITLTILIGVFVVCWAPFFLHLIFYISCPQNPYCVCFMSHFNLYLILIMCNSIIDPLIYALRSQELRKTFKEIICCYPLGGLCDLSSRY
168 GPCRs (Homo sapiens, UniProt P21918), sequence (P21918 whole entry): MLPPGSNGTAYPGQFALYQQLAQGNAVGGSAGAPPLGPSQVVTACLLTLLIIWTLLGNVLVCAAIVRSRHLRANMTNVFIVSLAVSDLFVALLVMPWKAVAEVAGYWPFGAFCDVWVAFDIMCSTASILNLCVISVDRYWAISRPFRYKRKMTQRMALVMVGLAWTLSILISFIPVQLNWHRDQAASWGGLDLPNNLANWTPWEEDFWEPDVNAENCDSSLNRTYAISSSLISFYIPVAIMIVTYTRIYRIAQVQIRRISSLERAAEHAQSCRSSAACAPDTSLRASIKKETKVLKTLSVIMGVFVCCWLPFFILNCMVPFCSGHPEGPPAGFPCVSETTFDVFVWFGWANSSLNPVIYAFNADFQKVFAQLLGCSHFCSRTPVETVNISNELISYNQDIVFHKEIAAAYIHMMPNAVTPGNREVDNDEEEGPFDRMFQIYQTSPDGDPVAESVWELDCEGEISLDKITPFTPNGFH
168 GPCRs (Homo sapiens, UniProt P25116), sequence (P25116 22-425): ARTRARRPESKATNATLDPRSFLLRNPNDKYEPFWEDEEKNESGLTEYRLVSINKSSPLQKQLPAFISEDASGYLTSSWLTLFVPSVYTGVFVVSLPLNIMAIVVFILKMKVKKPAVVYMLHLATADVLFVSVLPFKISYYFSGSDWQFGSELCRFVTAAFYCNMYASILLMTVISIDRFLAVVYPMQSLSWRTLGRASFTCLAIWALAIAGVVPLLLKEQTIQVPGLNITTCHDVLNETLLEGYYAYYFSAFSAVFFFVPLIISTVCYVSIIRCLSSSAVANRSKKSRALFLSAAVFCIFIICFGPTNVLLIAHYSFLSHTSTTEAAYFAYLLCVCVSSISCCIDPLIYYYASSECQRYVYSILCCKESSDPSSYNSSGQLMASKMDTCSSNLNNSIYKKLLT
168 GPCRs (Homo sapiens, UniProt P41231), sequence (P41231 whole entry): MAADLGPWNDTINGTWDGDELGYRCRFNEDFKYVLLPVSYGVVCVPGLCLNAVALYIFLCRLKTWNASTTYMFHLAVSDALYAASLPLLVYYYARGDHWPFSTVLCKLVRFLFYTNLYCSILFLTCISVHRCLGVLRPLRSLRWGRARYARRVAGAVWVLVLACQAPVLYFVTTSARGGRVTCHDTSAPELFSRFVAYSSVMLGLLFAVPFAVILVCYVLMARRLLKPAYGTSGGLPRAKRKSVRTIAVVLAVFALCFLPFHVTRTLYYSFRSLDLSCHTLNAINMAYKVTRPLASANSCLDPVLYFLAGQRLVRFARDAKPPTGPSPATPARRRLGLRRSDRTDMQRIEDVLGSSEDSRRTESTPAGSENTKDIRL
168 GPCRs (Homo sapiens, UniProt P11229), sequence (P11229 whole entry): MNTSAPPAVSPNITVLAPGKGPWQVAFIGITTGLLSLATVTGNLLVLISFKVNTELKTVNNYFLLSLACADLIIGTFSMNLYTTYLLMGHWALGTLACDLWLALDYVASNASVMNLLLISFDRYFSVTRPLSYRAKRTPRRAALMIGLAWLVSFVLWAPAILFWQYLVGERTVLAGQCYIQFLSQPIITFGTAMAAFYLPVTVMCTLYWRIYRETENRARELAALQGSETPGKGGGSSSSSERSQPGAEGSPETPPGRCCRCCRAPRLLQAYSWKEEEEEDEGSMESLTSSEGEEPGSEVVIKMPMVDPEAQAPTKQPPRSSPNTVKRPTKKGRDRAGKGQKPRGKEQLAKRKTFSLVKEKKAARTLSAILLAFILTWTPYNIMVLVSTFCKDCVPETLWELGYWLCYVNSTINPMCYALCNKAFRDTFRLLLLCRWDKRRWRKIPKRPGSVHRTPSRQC
168 GPCRs (Homo sapiens, UniProt P16473), sequence (P16473 21-764): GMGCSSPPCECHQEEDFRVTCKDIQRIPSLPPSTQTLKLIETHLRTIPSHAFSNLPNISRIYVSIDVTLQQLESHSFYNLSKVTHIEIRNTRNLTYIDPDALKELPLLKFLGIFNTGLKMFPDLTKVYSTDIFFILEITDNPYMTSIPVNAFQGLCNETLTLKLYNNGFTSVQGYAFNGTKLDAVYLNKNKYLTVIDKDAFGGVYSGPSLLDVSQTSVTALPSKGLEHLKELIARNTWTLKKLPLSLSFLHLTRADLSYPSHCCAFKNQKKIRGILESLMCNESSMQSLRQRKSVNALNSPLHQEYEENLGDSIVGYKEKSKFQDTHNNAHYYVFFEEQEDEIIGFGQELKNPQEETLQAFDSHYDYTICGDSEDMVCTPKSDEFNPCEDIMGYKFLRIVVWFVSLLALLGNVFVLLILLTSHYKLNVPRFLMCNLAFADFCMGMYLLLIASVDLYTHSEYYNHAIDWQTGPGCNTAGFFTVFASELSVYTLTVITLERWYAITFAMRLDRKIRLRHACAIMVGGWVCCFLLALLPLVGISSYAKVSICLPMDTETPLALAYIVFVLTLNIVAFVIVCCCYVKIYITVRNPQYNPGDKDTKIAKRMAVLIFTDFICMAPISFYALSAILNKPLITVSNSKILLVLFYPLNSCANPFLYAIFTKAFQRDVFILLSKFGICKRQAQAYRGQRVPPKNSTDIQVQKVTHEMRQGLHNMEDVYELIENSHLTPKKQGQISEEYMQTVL
168 GPCRs (Homo sapiens, UniProt Q99788), sequence (Q99788 whole entry): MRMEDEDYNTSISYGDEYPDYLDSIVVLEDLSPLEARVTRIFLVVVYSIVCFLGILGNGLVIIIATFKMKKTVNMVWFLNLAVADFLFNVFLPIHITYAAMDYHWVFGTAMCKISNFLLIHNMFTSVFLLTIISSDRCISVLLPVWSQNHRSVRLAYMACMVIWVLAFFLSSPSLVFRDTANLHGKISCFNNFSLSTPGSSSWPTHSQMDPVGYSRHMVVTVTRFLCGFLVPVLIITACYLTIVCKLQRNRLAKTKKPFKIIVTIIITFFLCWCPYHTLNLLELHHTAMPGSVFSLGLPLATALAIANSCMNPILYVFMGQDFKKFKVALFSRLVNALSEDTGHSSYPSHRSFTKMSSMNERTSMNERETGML

Q: Which results are given for `CNC(C)C(=O)c1ccc2c(c1)OCO2` (stereo not shown) [methylone, 3,4-methylenedioxy-N-methylcathinone]?
A: activity at 10 µM (168 GPCRs [1]; Agonist mode, 10 uM): -1%; activity at 1 µM (168 GPCRs [1]; Agonist, 1 uM): -1.5%; activity at 1 µM (168 GPCRs [2]; 1 uM): 7.2%; activity at 10 µM (168 GPCRs [2]; 10 uM): 8.7%; activity at 1 µM (168 GPCRs [3]; 1 uM): -9.1%; activity at 10 µM (168 GPCRs [3]; 10 uM): 8.5%; activity at 10 µM (168 GPCRs [4]; Agonist mode, 10 uM): 0.7%; activity at 1 µM (168 GPCRs [4]; Agonist, 1 uM): -1.2%; activity at 10 µM (168 GPCRs [5]; TACR2, Agonist mode, 10 uM): -3.3%; activity at 1 µM (168 GPCRs [5]; TACR2, Agonist, 1 uM): -1.9%; activity at 10 µM (168 GPCRs [6]; DRD5, Agonist mode, 10 uM): -0.2%; activity at 1 µM (168 GPCRs [6]; DRD5, Agonist, 1 uM): -0.1%; activity at 10 µM (168 GPCRs [7]; Agonist mode, 10 uM): 0.2%; activity at 1 µM (168 GPCRs [7]; Agonist, 1 uM): 2.5%; activity at 10 µM (168 GPCRs [8]; NTSR1, Agonist mode, 10 uM): -3.5%; activity at 1 µM (168 GPCRs [8]; NTSR1, Agonist, 1 uM): -4.7%; activity at 10 µM (168 GPCRs [9]; Agonist mode, 10 uM): -1.1%; activity at 1 µM (168 GPCRs [9]; Agonist, 1 uM): -1.4%; activity at 10 µM (168 GPCRs [10]; CXCR5, Agonist mode, 10 uM): 1.4%; activity at 1 µM (168 GPCRs [10]; CXCR5, Agonist, 1 uM): 2.5%; activity at 10 µM (168 GPCRs [11]; Agonist mode, 10 uM): -2.2%; activity at 1 µM (168 GPCRs [11]; Agonist, 1 uM): -2%; activity at 1 µM (168 GPCRs [12]; 1 uM): -0.6%; activity at 10 µM (168 GPCRs [12]; 10 uM): -0.5%; activity at 10 µM (168 GPCRs [13]; P2RY2, Agonist mode, 10 uM): -2.7%; activity at 1 µM (168 GPCRs [13]; P2RY2, Agonist, 1 uM): -2.1%; activity at 10 µM (168 GPCRs [14]; Agonist mode, 10 uM): -1.8%; activity at 1 µM (168 GPCRs [14]; Agonist, 1 uM): -3.2%; activity at 10 µM (168 GPCRs [15]; Agonist mode, 10 uM): -0.1%; activity at 1 µM (168 GPCRs [15]; Agonist, 1 uM): -0.3%; activity at 10 µM (168 GPCRs [16]; CX3CR1, Agonist mode, 10 uM): -0.4%; activity at 1 µM (168 GPCRs [16]; CX3CR1, Agonist, 1 uM): 0%; activity at 10 µM (168 GPCRs [17]; CXCR3, Agonist mode, 10 uM): 1.6%; activity at 1 µM (168 GPCRs [17]; CXCR3, Agonist, 1 uM): -0.2%; activity at 10 µM (168 GPCRs [18]; PROKR2, Agonist mode, 10 uM): -0.6%; activity at 1 µM (168 GPCRs [18]; PROKR2, Agonist, 1 uM): -0.6%; activity at 10 µM (168 GPCRs [19]; Agonist mode, 10 uM): -7.2%; activity at 1 µM (168 GPCRs [19]; Agonist, 1 uM): -6.6%; activity at 1 µM (168 GPCRs [20]; 1 uM): -0.2%; activity at 10 µM (168 GPCRs [20]; 10 uM): -0.3%; activity at 10 µM (168 GPCRs [21]; NPFFR1, Agonist mode, 10 uM): -5.6%; activity at 1 µM (168 GPCRs [21]; NPFFR1, Agonist, 1 uM): -4.6%; activity at 10 µM (168 GPCRs [22]; EDG4, Agonist mode, 10 uM): -2.1%; activity at 1 µM (168 GPCRs [22]; EDG4, Agonist, 1 uM): -2.2%; activity at 10 µM (168 GPCRs [23]; HRH3, Agonist mode, 10 uM): -3.7%; activity at 1 µM (168 GPCRs [23]; HRH3, Agonist, 1 uM): -3.4%
